These results are taken from US20150335696A1, “METHODS OF DEGRADING AGEs AND USES THEREOF” (ARKRAY, Inc., priority 2014, published 2015).

The assay is described as follows: AGEs-degrading activity: cleavage of AGEs crosslink model substance PPD, released benzoic acid measured by HPLC. It is filed as biochemical. How it is done:
In the present example, AGEs-degrading activities of plant extracts were evaluated with 1-phenyl-1,2-propanedione (PPD) as an index.
The AGEs-degrading activity was evaluated by measuring the cleavage reaction of crosslinks in AGEs. Specifically, the evaluation was carried out in the following manner on the basis of the method described in Vasan et al. (Vasan S, et al., An agent cleaving glucose-derived protein crosslinks in vitro and in vivo. 1996. Nature; 382: pp. 275-278).
As a model substance for crosslinks in AGEs, 1-phenyl-1,2-propanedione (PPD) was used. A degradation reaction was caused by each extract sample with PPD as a substrate. More specifically, a reaction solution having the following composition was obtained by mixing the components in an Eppendorf tube, and the resultant mixture was incubated at 37° C. for 8 hours (n=3). […] The amount of benzoic acid released by the degradation of PPD in the supernatant was measured by HPLC carried out under the following conditions. Also, the amount of benzoic acid inherently contained in the extract sample was measured by HPLC carried out under the same conditions. Furthermore, as a positive control regarding the cleavage of crosslinks, the amount of released benzoic acid was measured in the same manner, except that 500 μL of 10 mmol/L phenacylthiazolium bromide (PTB) was used instead of the extract sample. […]

As to `O=C(C[n+]1ccsc1)c1ccccc1.[Br-]` [PTB, phenacylthiazolium bromide], the “Relative activity Mean ± SD (%)” value (AGEs crosslink cleavage ratio relative to positive control PTB = 100%) was determined as 100.0%. Further, the “AGEs crosslink cleavage ratio Mean ± SD (%)” value (PPD substrate, 37° C. for 8 hours, n=3, molar benzoic acid produced / molar PPD (B/P)) stood at 38.2 ± 0.7%.
